Experimental data as given in patent US7982042B2, “Thiozanthene derivatives as delta-opioid modulators” (priority 2003, dated 2011).
Read-outs that look alike come from different tables or passages of the source.

What was measured:
[1] = molecular target: T1, Rat brain mu opioid receptor (Rattus norvegicus, UniProt P33535); assay: Rat brain mu opioid receptor binding assay ([3H]DAMGO)
T1 construct: from tissue; host or cells: forebrain of male Sprague Dawley rats
Description: • Procedure: Male, Sprague Dawley (150-250 g, VAF, Charles River, Kingston, N.Y.) are killed by CO2, and their brains removed and placed immediately in ice cold Tris HCl buffer (50 mM, pH 7.4). The forebrains are separated from the remainder of the brain by a coronal transection, beginning dorsally at the colliculi and passing ventrally through the midbrain-pontine junction. After dissection, the forebrains are homogenized in Tris buffer in a Teflon®-glass homogenizer. The homogenate is diluted to a concentration of 1 g of forebrain tissue per 80 mL Tris and centrifuged at 39,000×g for 10 min. The pellet is resuspended in the same volume of Tris buffer containing 5 mM MgCl2 with several brief pulses from a Polytron homogenizer. This particulate preparation is used for the mu-opioid binding assays. […] Kd and Ki values are calculated using GraphPad PRISM data analysis program.

delta opioid receptor = molecular target: T2, delta opioid receptor (Mus musculus, UniProt P32300); assay: [35S]GTPγS binding assay in NG108-15 cell membrane; assay type: biochemical
T2 construct: host or cells: NG108-15 cells (membranes, purchased)
T2 sequence (P32300 whole entry): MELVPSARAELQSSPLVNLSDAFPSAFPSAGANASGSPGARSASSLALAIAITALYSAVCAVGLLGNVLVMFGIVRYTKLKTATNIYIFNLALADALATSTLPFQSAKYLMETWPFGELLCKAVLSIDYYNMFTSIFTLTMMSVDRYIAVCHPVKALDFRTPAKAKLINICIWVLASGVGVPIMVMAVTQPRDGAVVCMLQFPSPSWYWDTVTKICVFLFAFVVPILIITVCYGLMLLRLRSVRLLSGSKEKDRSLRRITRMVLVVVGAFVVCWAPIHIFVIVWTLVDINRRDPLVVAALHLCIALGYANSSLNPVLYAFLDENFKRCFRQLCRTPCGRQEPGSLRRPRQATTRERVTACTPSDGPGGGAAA
Description: NG108-15 cell membranes were purchased from Applied Cell Sciences (Rockville, Md.). An 8 mg/mL portion of membrane protein was suspended in 10 mM TRIS-HC pH 7.2, 2 mM EDTA, 10% sucrose.
Membranes were maintained at 4-8° C. A 1 mL portion of membranes was added into 10 mL cold binding assay buffer. The assay buffer contained 50 mM Tris, pH 7.6, 5 mM MgCl2, 100 mM NaCl, 1 mM DTT and 1 mM EGTA. The membrane suspension was homogenized with a Polytron for 2 times and centrifuged at 3000 rpm for 10 min. The supernatent was then centrifuged at 18,000 rpm for 20 min. The pellet was saved in a tube and 10 ml assay buffer was added into the tube. The pellet and buffer were mixed with a Polytron.
The pellet membranes (75 μg/ml) were preincubated with SPA (10 mg/ml) at 25° C. for 45 min in the assay buffer. […] GTPγS in the same Tris buffer containing 100 μM GDP in total volume of 200 μl. Increasing concentrations of receptor agonists were used to stimulate [^35S] GTPγS binding. The basal binding was tested in the absent agonists and no specific binding was tested in the present 10 μM unlabeled GTPγS. The data were analyzed on a Top counter.
% of Basal=(stimulate−non specific)*100/(basal−non specific). EC50 values are calculated using a Prism program.

[2] = molecular target: T3, Rat brain delta opioid receptor (Rattus norvegicus, UniProt P33533); assay: Rat brain delta opioid receptor binding
T3 construct: from tissue; host or cells: rat brain
T3 sequence (P33533 whole entry): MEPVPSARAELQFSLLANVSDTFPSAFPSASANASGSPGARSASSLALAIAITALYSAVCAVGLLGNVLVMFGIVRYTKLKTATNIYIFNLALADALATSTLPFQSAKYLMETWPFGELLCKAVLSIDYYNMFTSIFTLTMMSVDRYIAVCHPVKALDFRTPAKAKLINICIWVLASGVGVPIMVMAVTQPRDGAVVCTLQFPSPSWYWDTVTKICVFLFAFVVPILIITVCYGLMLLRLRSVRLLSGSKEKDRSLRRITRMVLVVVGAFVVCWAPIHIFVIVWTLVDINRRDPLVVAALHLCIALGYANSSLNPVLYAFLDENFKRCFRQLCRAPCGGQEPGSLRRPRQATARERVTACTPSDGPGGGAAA

[3] = molecular target: T4, human delta opioid receptor (Homo sapiens, UniProt P41143); assay: [35S]GTPγS binding assay in CHO-hδ cell membranes; assay type: biochemical
T4 construct: purchased Receptor Biology, Inc. (Baltimore, Md.); host or cells: CHO cells expressing the human delta receptor (membranes)
T4 sequence (P41143 whole entry): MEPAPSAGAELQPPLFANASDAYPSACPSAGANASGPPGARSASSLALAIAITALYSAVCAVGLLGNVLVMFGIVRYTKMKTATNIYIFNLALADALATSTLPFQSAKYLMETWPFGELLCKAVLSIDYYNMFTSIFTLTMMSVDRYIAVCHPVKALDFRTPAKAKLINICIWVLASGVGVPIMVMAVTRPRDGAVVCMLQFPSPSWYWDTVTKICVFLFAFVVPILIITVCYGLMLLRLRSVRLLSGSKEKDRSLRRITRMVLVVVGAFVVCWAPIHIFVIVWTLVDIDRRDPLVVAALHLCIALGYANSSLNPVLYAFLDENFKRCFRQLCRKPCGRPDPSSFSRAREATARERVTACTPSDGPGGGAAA
Description: CHO-hδ cell membranes are purchased from Receptor Biology, Inc. (Baltimore, Md.). 10 mg/ml of membrane protein is suspended in 10 mM TRIS-HC pH 7.2, 2 mM EDTA, 10% sucrose.
(§1) Membranes are maintained at 4-8° C. 1 ml of membranes is added into 15 ml cold binding assay buffer. The assay buffer contained 50 mM HEPES, pH 7.6, 5 mM MgCl2, 100 mM NaCl, 1 mM DTT and 1 mM EDTA. The membrane suspension is homogenized with a Polytron 2 times and centrifuged at 3000 rpm for 10 min. The supernatant is then centrifuged at 18,000 rpm for 20 min. The pellet is saved in a tube and 10 ml assay buffer is added into the tube. The pellet and buffer are mixed with a Polytron.
(§2) The pellet membranes (20 μg/ml) are preincubated with SPA (10 mg/ml) at 25° C. for 45 min in the assay buffer. The SPA (5 mg/ml) coupled with membranes (10 μg/ml) is then incubated with 0.5 nM [^35S]GTPgS in the same HEPES buffer containing 50 μM GDP in total volume of 200 μl. Increasing concentrations of receptor agonists are used to stimulate [^35S]GTPgS binding. The basal binding is tested in the absence of agonists and non-specific binding is tested in the presence of 10 μM unlabeled GTP S. The data are analyzed on a Top counter.

human mu opioid receptor = molecular target: T5, human mu opioid receptor (Homo sapiens, UniProt P35372); assay: [35S]GTPγS binding assay in CHO-hμ cell membranes; assay type: biochemical; conditions: inhibition relative to 1 uM DAMGO, read-out: hMOR GTPγS % I @10 μM
T5 construct: purchased Receptor Biology, Inc. (Baltimore, Md.); host or cells: CHO cells expressing the human mu receptor (membranes)
T5 sequence (P35372 whole entry): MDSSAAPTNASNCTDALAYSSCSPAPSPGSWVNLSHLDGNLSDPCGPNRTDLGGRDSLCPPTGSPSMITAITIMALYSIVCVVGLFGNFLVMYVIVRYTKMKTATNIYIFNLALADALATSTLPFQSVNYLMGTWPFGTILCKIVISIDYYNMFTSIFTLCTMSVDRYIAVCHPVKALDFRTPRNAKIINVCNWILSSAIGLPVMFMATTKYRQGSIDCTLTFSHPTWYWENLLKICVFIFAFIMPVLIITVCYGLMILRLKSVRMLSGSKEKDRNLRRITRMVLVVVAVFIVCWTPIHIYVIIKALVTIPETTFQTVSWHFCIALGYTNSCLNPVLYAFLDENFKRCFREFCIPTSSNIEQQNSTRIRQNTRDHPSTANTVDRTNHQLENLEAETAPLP
Description: CHO-hμ cell membranes are purchased from Receptor Biology, Inc. (Baltimore, Md.). About 10 mg/ml of membrane protein is suspended in 10 mM TRIS-HC pH 7.2, 2 mM EDTA, 10% sucrose.
as §1, with “assay buffer contains 50 mM” for “assay buffer contained 50 mM”, “is added to the tube.” for “is added into the tube.”
as §2, with “25 C′” for “25° C.”, “present” for “presence of”, “GTPγS.” for “GTP S.”
% of Basal=(stimulate−non-specific)*100/(basal−non specific). % inhibition value values are calculated using a formula, % Inhibition=(% Basal of 1 uM DAMGO−% Basal of compound)*100/(% Basal of 1 uM DAMGO−100)

[4] = DOR GTPγS EC50, delta opioid receptor GTPγS functional assay
[5] = hDOR GTPγS EC50, human delta opioid receptor GTPγS functional assay
[6] = human delta opioid receptor GTPγS functional assay, read-out: hDOR GTPγS EC50

T1 sequence (P33535 whole entry): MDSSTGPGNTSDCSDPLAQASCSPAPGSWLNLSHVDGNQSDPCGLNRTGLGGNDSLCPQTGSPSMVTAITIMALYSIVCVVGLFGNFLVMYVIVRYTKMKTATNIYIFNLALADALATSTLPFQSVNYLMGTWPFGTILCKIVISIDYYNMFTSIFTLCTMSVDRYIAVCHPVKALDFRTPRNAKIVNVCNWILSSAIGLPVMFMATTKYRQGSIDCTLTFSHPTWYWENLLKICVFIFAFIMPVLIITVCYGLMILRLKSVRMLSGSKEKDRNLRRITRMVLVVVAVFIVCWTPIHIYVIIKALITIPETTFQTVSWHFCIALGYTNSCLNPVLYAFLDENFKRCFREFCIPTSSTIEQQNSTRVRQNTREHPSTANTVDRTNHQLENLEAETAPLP

Compound | Ki ([1]; rMOR Ki) [nM] | EC50 (delta opioid receptor; [4]) [nM] | Ki ([2]; rDOR Ki) [nM] | EC50 [3, 5] [nM] | inhibition at 10 µM (human mu opioid receptor) [%] | Ki ([1]; read-out: rMOR Ki) [nM] | EC50 (delta opioid receptor; delta opioid receptor GTPγS functional assay, read-out: DOR GTPγS EC50) [nM] | EC50 [3, 6] [nM] | Ki ([2]; read-out: rDOR Ki) [nM]
CC(C)N(C)C(=O)c1ccc2c(c1)Oc1ccccc1C2=C1CC2CCC(C1)N2 [Compound 92, 9-(8-Aza-bicyclo[3.2.1]oct-3-ylidene)-9H-xanthene-3-carboxylic acid isopropyl-methyl-amide] | 2.09 | 55.3 | 2.09 | – | – | – | – | – | –
CCN(CC)C(=O)c1ccc2c(c1)Oc1c(OC)cccc1C2=C1CC2CCC(C1)N2 [Compound 68, 9-(8-Aza-bicyclo[3.2.1]oct-3-ylidene)-5-methoxy-9H-xanthene-3-carboxylic acid diethylamide] | 1290 | 22 | 0.74 | – | – | – | – | – | –
CCN(CC)C(=O)c1ccc2c(c1)Oc1c(cccc1-c1ccsc1)C2=C1CC2CCC(C1)N2 [Compound 99, 9-(8-Aza-bicyclo[3.2.1]oct-3-ylidene)-5-thiophen-3-yl-9H-xanthene-3-carboxylic acid diethylamide] | 3490 | 12.5 | 19.3 | – | – | – | – | – | –
CCN(CC)C(=O)c1ccc2c(c1)Oc1c(cccc1-c1ccncc1)C2=C1CC2CCC(C1)N2 [Compound 96, 9-(8-Aza-bicyclo[3.2.1]oct-3-ylidene)-5-pyridin-4-yl-9H-xanthene-3-carboxylic acid diethylamide] | 4220 | 35.3 | 1.69 | – | – | – | – | – | –
CCN(CC)C(=O)c1ccc2c(c1)Sc1ccccc1C2=C1CC2CCC(C1)N2 (single isomer, unassigned) [Compound 62, 9-(8-Aza-bicyclo[3.2.1]oct-3-ylidene)-9H-thioxanthene-3-carboxylic acid diethylamide] | 739 | 8.35 | 2.96 | – | – | – | – | – | –
CCN(CC)C(=O)c1ccc2c(c1)Oc1c(O)cccc1C2=C1CC2CCC(C1)N2 [Compound 100, 9-(8-Aza-bicyclo[3.2.1]oct-3-ylidene)-5-hydroxy-9H-xanthene-3-carboxylic acid diethylamide] | 5.85 | 0.452 | 0.274 | – | – | – | – | – | –
CCN(CC)C(=O)c1ccc2c(c1)Oc1ccccc1C2=C1CC2CCC(C1)N2 [Compound 24, 9-(8-Aza-bicyclo[3.2.1]oct-3-ylidene)-9H-xanthene-3-carboxylic acid diethylamide] | 5690 | – | 0.57 | 10.2 | 1 | – | – | – | –
CCN(CC)C(=O)c1ccc2c(c1)Oc1c(cccc1-c1cccnc1)C2=C1CC2CCC(C1)N2 [Compound 101, 9-(8-Aza-bicyclo[3.2.1]oct-3-ylidene)-5-pyridin-3-yl-9H-xanthene-3-carboxylic acid diethylamide] | 532 | 19.3 | 9.14 | – | – | – | – | – | –
CCN(CC)C(=O)c1ccc2c(c1)Oc1c(Br)cccc1C2=C1CC2CCC(C1)N2 [Compound 94, 9-(8-Aza-bicyclo[3.2.1]oct-3-ylidene)-5-bromo-9H-xanthene-3-carboxylic acid diethylamide] | 674 | 14.1 | 2.28 | – | – | – | – | – | –
CCNC(=O)c1ccc2c(c1)Oc1ccccc1C2=C1CC2CCC(C1)N2 (single isomer, unassigned) [Compound 55] | – | – | 66.5 | – | – | 1860 | > 1000 | – | –
CCN(CC)C(=O)c1ccc2c(c1)Sc1ccccc1C2=C1CC2CCC(C1)N2Cc1ccc2c(c1)OCO2 [Compound 47, 9-(8-Benzo[1,3]dioxol-5-ylmethyl-8-aza-bicyclo[3.2.1]oct-3-ylidene)-9H-thioxanthene-3-carboxylic acid diethylamide] | 48.3 | – | 4.5 | – | 59.2 | – | – | 125 | –
CCN(CC)C(=O)c1ccc2c(c1)Oc1ccccc1C2C1CCNCC1 (stereo not shown) [Compound 42, 9-Piperidin-4-yl-9H-xanthene-3-carboxylic acid diethylamide] | – | – | – | – | 4 | 8790 | – | 266 | 14.7
C=CCN1CCC(=C2c3ccccc3Oc3cc(C(=O)N(CC)CC)ccc32)CC1 [Compound 8, 9-(1-Allyl-piperidin-4-ylidene)-9H-xanthene-3-carboxylic acid diethylamide] | – | – | 2.1 | – | 1 | 2820 | – | 620 | –
CCN(CC)C(=O)c1ccc2c(c1)OCc1ccccc1C2=C1CCN(Cc2ccc3c(c2)OCO3)CC1 [Compound 4, 11-(1-Benzo[1,3]dioxol-5-ylmethyl-piperidin-4-ylidene)-6,11-dihydro-dibenzo[b,e]oxepine-3-carboxylic acid diethylamide] | – | – | 0.39 | – | 9 | 301 | – | 552 | –
CCN(CC)C(=O)c1ccc2c(c1)Oc1ccccc1C2=C1CCN(C=Nc2ccccc2)CC1 [Compound 36, 9-(1-Phenyliminomethyl-piperidin-4-ylidene)-9H-xanthene-3-carboxylic acid diethylamide] | > 10000 | – | 0.79 | 42.5 | 14 | – | – | – | –
CCN(CC)C(=O)c1ccc2c(c1)Oc1ccccc1C2=C1CCN(C=S)CC1 [Compound 37, 9-(1-Thioformyl-piperidin-4-ylidene)-9H-xanthene-3-carboxylic acid diethylamide] | > 10000 | – | 2.02 | 921 | 5 | – | – | – | –
CCN(CC)C(=O)c1ccc2c(c1)Oc1ccccc1C2=C1CC2CCC(C1)N2Cc1ccccn1 [Compound 44] | 77.2 | – | 0.15 | 0.873 | 28 | – | – | – | –
CCN(CC)C(=O)c1ccc2c(c1)Oc1ccccc1C2=C1CCN(Cc2ccccn2)CC1 [Compound 29] | 362 | – | 0.05 | 31.6 | 34 | – | – | – | –
CCN(CC)C(=O)c1ccc2c(c1)Oc1ccccc1C2=C1CCN(Cc2ccccc2O)CC1 [Compound 30] | – | – | 10.9 | – | 24 | 912 | – | 2480 | –
